# B1: SC3: class I hydrophobin of 112 amino acids from Schizophyllum commune, accession P16933 (protein, UniProt P16933 25-136, looked up)
# Class I hydrophobin SC3: GGHPGTTTPPVTTTVTVTTPPSTTTIAAGGTCTTGSLSCCNQVQSASSSPVTALLGLLGIVLSDLNVLVGISCSPLTVIGVGGSGCSAQTVCCENTQFNGLINIGCTPINIL
# How the values were obtained:
# [1] = Nail penetration study with Terbinafine (example 1a); format: in vitro ADME; details: reference solution: 10% (w/v) Terbinafine in 60% (v/v) ethanol/water, no hydrophobin; average of 3
# Description: Healthy nails for the permeability experiments were obtained from the Institute of Anatomy of the University of Basel and from the Institute of Anatomy of the University of Freiburg, Germany. Franz Diffusion Cells (SES GmbH—Analysesysteme, Bechenheim, Germany) with a diffusion area of 0.785 cm^2 were used. […] Subsequently, they were mounted in the diffusion cells in an appropriate manner. The acceptor chamber below the nail was filled with 5 ml PBS. The formulation (400 μl) was applied onto the nail. In order to keep the temperature in the system constant, the glass cells were tempered by a water jacket kept at 32°. The acceptor chambers were stirred with a magnetic stirrer at 400 rpm. The openings for the formulations and the extensions for taking samples were covered with Parafilm (film comprising paraffin wax and polyethene; American National Can Company, USA). A sample of 400 μl was taken from each cell twice a day and replaced with the same amount of PBS warmed to 32° C. […] The concentrations of the samples were measured with UV-spectrophotometry. Flux and permeation coefficients were calculated with the values after 48 hours, as in this time a steady state was obtained. […]
# [2] = test system: cells in the skin model (EST-1000); format: cell-based; details: human, 48 h, 1 %
# Description: Cytotoxicity of the test samples on the skin culture was determined by MTT-assay according to the instructions of the skin model provider. The viability of the cells in the skin model was not influenced by the solvents (50% ethanol, 0.002% SDS) as compared to cultures treated with PBS only. A viability of about 50% of that of the control cultures was observed when 1% caffeine or 1% caffeine/10 μg hydrophobin (SC3 or HFB II, respectively) were applied on the skin culture, showing that hydrophobin itself was not cytotoxic at a concentration of 200 μg/ml. The barrier function of the skin model is probably not influenced profoundly by the reduced viability of the cells, since the upper layer keratinocytes comprises non living cells.
# [3] = format: in vitro ADME
# Source text: A formulation with one enhancer, Trichoderma reesei hydrophobin HFBII (isolation see […]., Aro, […]. and […]. 1997, Differential expression of the vegetative and spore-bound hydrophobins of Tricoderma reesei, Cloning and characterization of the hfb2 gene. Eur. J. […] As ethanol is a potential solvent for substances poorly soluble in water and prevents from microbiological growth, a better or a similar permeability is desirable. […] With this caffeine-concentration the solution was nearly saturated. This was intended to achieve a faster steady state according to the highest concentration gradient possible. Phosphate buffered saline (PBS) was prepared with a pH of 7.4. Both pH and osmolality of PBS simulated in the Franz diffusion cell's acceptor chamber the physiological conditions of blood (a systemic buffer system). The water used for the formulations and PBS was freshly produced, double distilled and filtered. Healthy nails for the permeability experiments were obtained from the Institute of Anatomy of the University of Basel and from the Institute of Anatomy of the University of Freiburg, Germany. […] The concentrations of the samples were measured with UV-spectrophotometry. Flux and permeation coefficients were calculated with the values after 48 hours, as in this time a steady state was obtained.
# [4] = format: in vitro ADME, human
# Description: The penetration of caffeine through the skin was measured using a human epidermal skin model (EST-1000, Cell Systems, St. Katharinen, Germany). The in vitro model for human skin consists of a robust multilayer three-dimensional cell culture, which has been grown for 14 days and has skin-like properties. The cellular structure of EST-1000 resembles that of the natural epidermis showing a base membrane, proliferating keratinocytes and stratum corneum with an intact barrier function. The tissues were provided in cell culture inserts with a polycarbonate membrane with 0.63 cm^2 surface area and 0.4 μm pore size. The membranes were covered completely by the cells and show a matte white, dry surface after complete differentiation. The inserts were handled easily by the use of a sterile forceps. Upon delivery, the skin inserts were equilibrated by placing each insert into a well of a 6-well cell culture dish containing 1 ml of maintenance medium (provided by Cell Systems). After 4-12 hours of equilibration the test substance was applied on the dry surface of the skin model. Penetration of substances applied onto the surface of the skin culture through the skin model was measured by sampling the medium surrounding the insert and detecting the concentration of the test substance, here caffeine. […] Caffeine was purchased from Sigma and applied in a concentration of 10 mg/ml (1% w/v). […]
molecule,measurement,setting,value
CN(C/C=C/C#CC(C)(C)C)Cc1cccc2ccccc12 [Terbinafine],Cumulated amount of Terbinafine penetrated through nail after 10 days,[1],~12 mg/cm2
Cn1c(=O)c2c(ncn2C)n(C)c1=O [caffeine],Viability relative to control cultures (MTT),[2],about 50%
"C[S+](C)[O-] [DMSO, dimethylsulfoxide]",Enhancement factor (EF) in 20% (v/v) EtOH/water,[3],3.25
B1,Enhancement of penetration of caffeine (1% w/v) through in vitro model of human skin,[4],up to 21.5%

# — patent publication US8758730B2, “Compositions, use and method for the use of surface active proteins in topical drug delivery across keratin” (B.R.A.I.N. Biotechnology Research and Information Network AG, priority 2009, dated 2014)
